Test results from US20220023315A1, “METHODS OF ACTIVATING MICROGLIAL CELLS” (THE RESEARCH FOUNDATION FOR THE STATE UNIVERSITY OF NEW YORK, priority 2018, published 2022).
“Also recorded” adds a separate entry of the source.

Experiments:
BV2 cells [1] = assay: Phagocytosis of PI-stained dead neurons, BV2 cells (flow cytometry); format: cell-based; conditions: for phagocytosis of dead neurons, selective inhibitors alone or combined: BV2 cells (FIG. 6C)
Description: (§1) Next it was investigated if microglial can phagocytose dead neurons, and to what extent the phagocytosis of dead neurons is enhanced by SHIP inhibitors. Dead neurons were stained with propidium iodide. Propidium iodide is a fluorescent compound that binds to a cell's DNA and can be used to stain dead cells. The phagocytosis of propidium iodide (PI)-stained dead neurons by microglia was investigated by flow cytometry (FIG. 6). […] (FIG. 6C). […] Pan-SHIP inhibition increased phagocytic activity of microglial cells towards dead neurons.

primary microglia [2] = assay: Phagocytosis of PI-stained dead neurons, primary microglia (flow cytometry); format: cell-based, mouse
Description: as §1

[3] = system: AKT, p-mTOR, p-S6 in primary microglia cells; assay: Expression of signaling kinases, primary microglia; format: cell-based, mouse
Description: (§2) Using both Western blotting and intracellular flow (icFlow) assays activation of key signaling kinases that are known to control proliferation, survival and effector functions in immune cells were examined. This included probing for phosphorylated forms of Akt, ERK, mTOR (p-mTOR) and S6 (p-S6). BV2 cells were incubated with a series of pan-SHIP inhibitors. […] In FIG. 8E, the effect of 3AC on BV2 cells is depicted, as assessed by Western Blotting, with actin and HSP90 as loading controls.

BV2 cells [4] = assay: Phagocytosis of FITC-labeled amyloid beta (1-42), BV2 cells (flow cytometry, confocal); format: cell-based; conditions: for beta amyloid phagocytosis: BV2 cells, 16 hours, 3.75 μM, then 1 hour beta amyloid-FITC
Description: It was investigated if the enhanced phagocytic activity of microglia towards lysotracker and dead neurons extended to the enhanced phagocytosis of amyloid proteins. Flow cytometric assays were conducted to detect and compare the ability of SHIP inhibitor compounds to enhance the phagocytosis of amyloid beta 1-42 coupled to FITC. These assays provided a means to compare the ability of SHIP inhibitor compounds to promote a crucial effector function of microglia in the brain that is highly relevant for the pathology of Alzheimer's disease.
Cells were then washed twice and analyzed by flow cytometry for the presence of FITC-labeled amyloid beta (1-42). […] FIG. 7F-H show the confocal images of fixed BV2 cells incubated with beta amyloid with and without K161.

[5] = system: p-mTOR (Ser2448) and p-S6 in BV2 cells; assay: Western blotting and intracellular flow of signaling kinases, BV2 cells; format: cell-based; conditions: for mTOR phosphorylation at Ser2448: microglia (BV2), Western blotting / icFlow
Description: as §2

[6] = system: CD11b+CD45low cell population (microglial cells) of the cerebral hemispheres; assay: K161-treated mice: phagocytic activity of brain cell populations; format: in vivo
Description: In a subsequent experiment, mice were treated twice a week for two weeks with K161. A single cell suspension of the cerebral hemispheres was prepared from K161 (10 mg/kg) and vehicle (H20)-treated mice (n=10/group). Mice were treated twice a week for two weeks, the brains harvested by flow cytometry (FIG. 12A). Box & whisker plots of frequency of single population gated on live cells singlets for markers CD11b, CD45 and ACSA2 (FIG. 12B). The ability of the various cell types to phagocytose dead neurons, beta amyloid and LysoTracker in the absence or presence of K61 are shown in FIG. 12I to 12K. A single cell suspension of the cerebral hemispheres was prepared from K161 (10 mg/kg) and vehicle (H2O)-treated mice (n=10/group). Mice were treated twice a week for two weeks, the brains harvested by flow cytometry. Box & whisker plots of dead neuron (FIG. 12I), beta amyloid (FIG. 12J) and lysotracker assay (FIG. 12K) are shown on a single brain population gated on live cells, singlets and surface markers CD11b, CD45 and ACSA2.
Therefore, SHIP inhibitors, and particularly those that inhibit both SHIP1 and SHIP2, or selectively SHIP2 (e.g., AS1949490—available from commercial suppliers such as Sigma Aldrich and Tocris), can increase microglial phagocytic capacity to remove dead neurons from the CNS.

primary microglia [7] = assay: Phagocytosis of FITC-labeled amyloid beta, primary microglia (flow cytometry); format: cell-based, mouse; conditions: 16 hours, 1.25 μM, then 1 hour beta amyloid-FITC
[8] = Detection of K161 in brain tissue by mass spectrometry after single dosing; format: in vivo; conditions: mice; for detection in brain tissue: 48 hr or 96 hr after administration, mass spectrometry
Description: Tissues were harvested 48 hr or 96 hr after administration, and K161 was detected by mass spectrometry and quantitated against a known concentration of K161 spiked into either serum or brain tissue homogenate (FIG. 13A). The calibration curves for K161 are shown in FIGS. 13B and 13C, with the added experimental data points in FIG. 13D. The concentrations of K161 in the brain tissue samples were calculated from the linear characteristics of the standard curve FIG. 13E.

[9] = Serum levels after single dose IP or oral gavage; format: in vivo, mice
Description: To assess oral bioavailability, K118 and K161 were administered in a single dose of 10 mg/kg either by IP or by oral gavage, and levels of each were measured in serum (FIG. 14).

BV2 cells [10] = assay: LysoTracker Red staining of lysosomal/phagosomal compartment, BV2 cells (flow cytometry, confocal); format: cell-based; conditions: for LysoTrackerRed MFI (phagosomal compartment size): BV2 cells treated 16 hr, 3.75 μM and 5 μM, vs diluent control; for phagosomal compartment size (LysoTrackerRed staining): BV2 cells treated 20 hr, 50 nM LysoTrackerRed
Description: Flow cytometric assays were conducted to detect and compare the ability of SHIP inhibitor compounds to increase the phagocytic capacity of microglia as determined by LysoTracker Red staining which is preferentially retained and fluoresces in the acidic environment of the lysosomal/phagosomal subcellular compartment. BV2 cells were treated for 20 hr with 3AC, K118 or K149 at the indicated doses vs. their respective diluent controls, washed twice and incubated with 50 nM LysoTrackerRed and then analyzed by flow cytometry (FIG. 5). Histograms of the LysoTrackerRed staining for each compound at the indicated dose or their diluent control (0 μM) are shown. […] K118 repeated towards BV2 cells (FIG. 5D, 5E) and primary microglial cells (FIG. 5F, 5G). BV2 cells were treated for 16 hr with the indicated K118 concentration and incubated with LysoTrackerRed (50 nM), washed twice and then analyzed by flow cytometry and compared to similarly treated vs. their diluent control primary microglia (0.5% DMSO). Histograms of LysoTrackerRed staining for K118 (Red-3.75 μM, Green-5 μM) or diluent control (Blue, shaded) are shown. In FIG. 5E, line and whisker plots are shown for the mean fluorescence intensity (MFI) of LysoTrackerRed staining at the indicated concentrations of K118.
Pan-SHIP1/2 inhibition increased microglial lysosomal/phagosomal compartment.

BV2 cells [11] = assay: CCK-8 assay of cell growth, BV2 cells; format: cell-based; conditions: 48 hr
Description: (§3) The ability of 3AC, K118 and K149 to promote the proliferation of BV2 and SIM-A9 microglial cells was tested in vitro. Cells were counted with a cell counting kit-8 (e.g. CCK-8) which is a sensitive colorimetric assays for the determination of cell viability in cell proliferation and cytotoxicity assays. It uses the highly water-soluble tetrazolium salt, WST-8, which is reduced by dehydrogenase activities in cells to give a yellow-color formazan dye, which is soluble in the tissue culture media. The amount of the formazan dye, generated by the activities of dehydrogenases in cells, is directly proportional to the number of living cells.
(§4) A CCK-8 assay was performed for analysis of cell growth of BV2 cells (FIG. 4A), and SIM-A9 cells (FIG. 4B) vs. their respective vehicle controls (100%) at 48 hr. Each point represents the mean of the 6 replicates for each dose.

SIM-A9 cells [12] = assay: CCK-8 assay of cell growth, SIM-A9 cells; format: cell-based; conditions: 48 hr
Description: as §3, §4

SIM-A9 cells [13] = assay: Phagocytosis of PI-stained dead neurons, SIM-A9 cells (flow cytometry); format: cell-based; conditions: Torin with K161
Description: as §1

[14] = 10 mg/kg twice a week for two weeks, vs vehicle

Compound: C[C@H](NC(=O)c1sccc1OCc1ccc(Cl)cc1)c1ccccc1 [AS1949490]
- phagocytosis of dead neurons, selective inhibitors alone or combined (BV2 cells [1]): not either of those inhibitors alone, increased phagocytosis

Compound: Cc1c(CCN)c2ccccc2n1Cc1ccccc1Cl.Cl
- melting point: 161 to 169 °C

Compound: CC[C@H]1CC[C@H]2[C@@H]3C[C@@H](O)C4C[C@H](N)CC[C@]4(C)[C@H]3CC[C@]12C (stereo partly shown)
- melting point: 193 to 195 °C

Compound: C[C@@]12CCC[C@H]1C1CC[C@H]3C[C@H](N)[C@H](N)C[C@]3(C)[C@H]1CC2.Cl.Cl (stereo in doubt) [K161, (2R,3S,5S,8R,9S,10S,13S,14S)-10,13-dimethylhexadecahydro-1H-cyclopenta[a]phenanthrene-2,3-diaminium Chloride]
- phagocytic activity towards dead neurons (primary microglia [2]; primary microglia, 16 hr, 1.25 μM): enhanced the phagocytic activity
- activation of AKT [3]: activated AKT
- activation of p-S6 [3]: not p-mTOR or p-S6
- activation of p-mTOR [3]: not p-mTOR or p-S6
- beta amyloid phagocytosis (BV2 cells [4]): Significant increases in beta amyloid phagocytosis; also recorded: significantly increased
- phagosomal component, confocal images (BV2 cells [4]; fixed BV2 cells incubated with beta amyloid): the phagosomal component is increased
- p-S6 expression ([5]; BV2 cells): increase in p-S6 expression
- p-mTOR (Ser2448) expression, mean fluorescence intensity ([5]; BV2 cells, 16 hr, intracellular flow): significantly increased p-MTOR expression
- mTOR phosphorylation at Ser2448 [5]: increase mTOR phosphorylation at Ser2448
- ability to phagocytose beta amyloid, CD11b+CD45low cells [6, 14]: increased ability to phagocytose dead neurons and beta amyloid
- ability to phagocytose dead neurons, CD11b+CD45low cells [6, 14]: increased ability to phagocytose dead neurons and beta amyloid
- size of the phagosomal compartment in subsets of microglial cells in the brain ([6]; intraperitoneal injection twice a week for two weeks): increased the size of the phagosomal compartment
- beta amyloid phagocytosis (primary microglia [7]): Significant increases in beta amyloid phagocytosis
- blood brain barrier penetration ([8]; 10 mg/kg IP or oral gavage): can penetrate the blood brain barrier
- detection in brain tissue ([8]; 10 mg/kg IP): detectable in the brain tissue
- detection in brain tissue ([8]; 10 mg/kg oral gavage): detectable in the brain tissue
- decay in vivo, compared ([9]; mouse, in vivo, 10 mg/kg): decay more rapidly in vivo than K118
- oral bioavailability ([9]; single dose 10 mg/kg IP or oral gavage, levels in serum): have oral bioavailability

Compound: CC(C)CCC[C@@H](C)[C@H]1CC[C@H]2[C@@H]3CCC4C[C@H](N)CC[C@]4(C)[C@H]3CC[C@]12C (stereo partly shown) [3AC]
- mTOR phosphorylation at Ser2448 [5]: increase mTOR phosphorylation at Ser2448
- LysoTrackerRed MFI (phagosomal compartment size) (BV2 cells [10]): statistically significant increase in the phagosomal compartment size
- phagosomal compartment size (LysoTrackerRed staining) (BV2 cells [10]): only a modest increase
- phagocytosis of dead neurons, selective inhibitors alone or combined (BV2 cells [1]): not either of those inhibitors alone, increased phagocytosis

Compound: CSc1ccc2c(c1)c(CCN)c(C)n2Cc1ccc(Cl)cc1Cl [K149]
- beta amyloid phagocytosis (BV2 cells [4]): Significant increases in beta amyloid phagocytosis; also recorded: significantly increased
- mTOR phosphorylation at Ser2448 [5]: increase mTOR phosphorylation at Ser2448
- LysoTrackerRed MFI (phagosomal compartment size) (BV2 cells [10]): statistically significant increase in the phagosomal compartment size
- phagosomal compartment size (LysoTrackerRed staining) (BV2 cells [10]): robust increases
- cell growth vs. vehicle control (100%) (BV2 cells [11]): showed effects at 2.5, 3.75 and 5 μM concentrations
- cell growth (proliferation) vs. vehicle control (100%) (SIM-A9 cells [12]): an effect on proliferation was observed

Compound: Torin
- effect on K161-enhanced phagocytosis of dead neurons (primary microglia [2]; primary microglial cells, Torin with K161): did not abolish the increase in phagocytosis of dead neurons by K161
- effect on K161-enhanced phagocytosis of dead neurons (SIM-A9 cells [13]): did not abolish the increase in phagocytosis of dead neurons by K161
- effect on K161-enhanced phagocytosis of dead neurons (BV2 cells [1]; BV2 cells, Torin with K161): did not abolish the increase in phagocytosis of dead neurons by K161
